Columns and labels:
Assay type in all cases: cell-based
KRAS G12D = molecular target: T1, KRAS G12D (Homo sapiens, UniProt P01116, G12D); assay: KRAS G12D HiBit assay; details: AsPc-1-KRAS (G12D)-HiBit-KI cell, compound treatment for 24 hours, class symbols; for DC50: absolute DC50
T1 construct: AsPc-1-KRAS (G12D)-HiBit-KI cell (Pharmaron); host or cells: AsPc-1-KRAS (G12D)-HiBit-KI cells (HiBiT knock-in at the endogenous KRAS locus)
Method in brief: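 Cells were treated for 24 h with compounds in a 3-fold, 10-point dilution series from a 0.3 mM DMSO stock, then equilibrated 15 min at room temperature. KRAS G12D HiBiT levels were read by luminescence after lytic Nano-Glo HiBiT reagent with LgBiT; inhibition calculated relative to 0.1% DMSO high control.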

KRAS G12V = molecular target: T2, KRAS G12V (Homo sapiens, UniProt P01116, G12V); assay: KRAS G12V HiBit assay; details: SW620-KRAS (G12V)-HiBit-KI cells, compound treatment for 24 hours, class symbols
T2 construct: SW620-KRAS (G12V)-HiBit-KI cell (Pharmaron); host or cells: SW620-KRAS (G12V)-HiBit-KI cells (HiBiT knock-in at the endogenous KRAS locus)
Method in brief: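 HiBiT-tagged KRAS G12V cells treated 24 h with compound in a 3-fold, 10-point series (0.3 mM DMSO stock); lytic HiBiT reagent with LgBiT added after 15 min room-temperature equilibration. Degradation calculated against 0.1% DMSO high control.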

KRAS = molecular target: T3, KRAS (Homo sapiens, UniProt P01116); assay: KRASamp MSD assay; details: KE39 (KRAS amplified) cells, treated with test compounds for 24 hr, MSD readout of KRAS degradation
T3 construct: endogenous in cells; host or cells: KE39 (KRAS amplified) cells
Description: KE39 (KRAS amplified) cells were cultured in RPMI 1640 medium (Gibco, 11875093), seeded into 96 well plate and treated with test compounds for 24 hr. The cells were washed with PBS and lysed in plate for 1 hr at 4° C. with agitation in RIPA buffer (Cat No. BP-115D) supplemented with protease and phosphatase inhibitor cocktail. The lysates were loaded into MSD plate coated with KRAS capture antibody (LSBio, C175665, 1:1000) for 1 h at RT with agitation. The plate was then washed three times with TBST and incubated with KRAS detection antibody (Abcam, Ab275876. 1:2000) for 1 h at RT. After washing three times with TBST, the plate was incubated with secondary detection antibody GAR (1:500) for 1 hr at RT followed with 3×TBST washing. 2×MSD reading buffer was added into individual wells and the plate was finally read by MSD reader (MSD, SQ 120 MM). The recombinant WT KRAS protein was used for standard curve generation and protein quantification. The degradation activity was calculated using the following formula: […]
DC50 was calculated by fitting the curve using GraphPad Prism v8.0.2 (analysis 263): […]

T3 sequence (P01116 1-188 isoform P01116-2): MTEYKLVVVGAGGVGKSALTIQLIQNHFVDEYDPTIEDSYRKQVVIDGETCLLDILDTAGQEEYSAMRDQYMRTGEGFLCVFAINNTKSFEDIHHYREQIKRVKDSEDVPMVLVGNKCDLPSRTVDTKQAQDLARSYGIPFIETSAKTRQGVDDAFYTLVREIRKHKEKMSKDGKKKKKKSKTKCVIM
T1 sequence (P01116 1-188 isoform P01116-2 G12D): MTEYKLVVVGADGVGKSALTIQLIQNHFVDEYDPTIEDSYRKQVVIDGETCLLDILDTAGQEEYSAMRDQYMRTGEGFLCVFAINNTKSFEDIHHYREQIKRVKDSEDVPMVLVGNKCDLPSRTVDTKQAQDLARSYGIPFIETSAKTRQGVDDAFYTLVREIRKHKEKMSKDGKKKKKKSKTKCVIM
T2 sequence (P01116 1-188 isoform P01116-2 G12V): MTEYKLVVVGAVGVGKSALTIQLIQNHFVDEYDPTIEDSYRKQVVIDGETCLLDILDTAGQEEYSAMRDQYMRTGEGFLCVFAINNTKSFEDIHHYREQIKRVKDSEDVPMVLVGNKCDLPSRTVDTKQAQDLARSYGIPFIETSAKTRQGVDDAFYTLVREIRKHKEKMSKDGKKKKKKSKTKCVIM

Work on `CCc1c(F)ccc2cc(O)cc(-c3ncc4c(N5CCC[C@@](C)(O)C5)nc(OC[C@@]56CCCN5[C@H](COC(=O)N5CCC(CN7CCN(c8ccc9c(c8)n(C)c(=O)n9C8CCC(=O)NC8=O)CC7)CC5)CC6)nc4c3F)c12` (stereo partly drawn) [Compound 95, [(3S,8S)-8-[[7-(8-ethyl-7-fluoro-3-hydroxy-1-naphthyl)-8-fluoro-4-[(3R)-3-hydroxy-3-methyl-1-piperidyl]pyrido[4,3-d]pyrimidin-2-yl]oxymethyl]-1,2,3,5,6,7-hexahydropyrrolizin-3-yl]methyl4-[[4-[1-(2,6-dioxo-3-piperidyl)-3-methyl-2-oxo-benzimidazol-5-yl]piperazin-1-yl]methyl]piperidine-1-carboxylate] yielded a DC50 (KRAS G12D) of under 100 nM, a Dmax (KRAS G12D) of over 50% and a DC50 (KRAS G12V) of under 10 nM. The DC50 (KRAS) was under 1 nM.
In the case of `CCc1c(F)ccc2cc(O)cc(-c3ncc4c(N5CCC[C@@](C)(O)C5)nc(OC[C@@]56CCCN5[C@H](COC(=O)N5CCC(CN7CCC(c8ccc9c(c8F)n(C)c(=O)n9C8CCC(=O)NC8=O)CC7)CC5)CC6)nc4c3F)c12` (stereo partly drawn) [Compound 96, [(3S,8S)-8-[[7-(8-Ethyl-7-fluoro-3-hydroxy-1-naphthyl)-8-fluoro-4-[(3R)-3-hydroxyl-3-methyl-1-piperidyl]pyrido[4,3-d]pyrimidin-2-yl]oxymethyl]-1,2,3,5,6,7-hexahydropyrrolizin-3-yl]methyl4-[[4-[1-(2,6-dioxo-3-piperidyl)-4-fluoro-3-methyl-2-oxo-benzimidazol-5-yl]-1-piperidyl]methyl]piperidine-1-carboxylate], the DC50 (KRAS G12D) is reported as under 100 nM, the Dmax (KRAS G12D) is reported as over 50% and the DC50 (KRAS G12V) is reported as under 10 nM. For the same molecule, the DC50 (KRAS) was under 1 nM.
`CCc1c(F)ccc2cc(O)cc(-c3ncc4c(N5CCC[C@@](C)(O)C5)nc(OC[C@@]56CCCN5[C@H](COC(=O)N5CCN(CC7CCN(c8ccc9c(c8)n(C)c(=O)n9C8CCC(=O)NC8=O)CC7)CC5)CC6)nc4c3F)c12` (stereo partly drawn) [Compound 97, [(3S,8S)-8-[[7-(8-ethyl-7-fluoro-3-hydroxy-1-naphthyl)-8-fluoro-4-[(3R)-3-hydro-xy-3-methyl-1-piperidyl]pyrido[4,3-d]pyrimidin-2-yl]oxymethyl]-1,2,3,5,6,7-hexahydropyrrolizin-3-yl]methyl 4-[[1-[1-(2,6-dioxo-3-piperidyl)-3-methyl-2-oxo-benzimidazol-5-yl]-4-piperidyl]methyl]piperazine-1-carboxylate] gave a DC50 (KRAS G12D) of under 100 nM, a Dmax (KRAS G12D) of over 50% and a DC50 (KRAS G12V) of under 10 nM. The DC50 (KRAS) was under 1 nM.
`CCc1c(F)ccc2cc(O)cc(-c3ncc4c(N5CCC[C@@](C)(O)C5)nc(OC[C@@]56CCCN5[C@H](COC(=O)N5CCC(CC7CCN(c8ccc9c(c8)n(C)c(=O)n9C8CCC(=O)NC8=O)CC7)CC5)CC6)nc4c3F)c12` (stereo partly drawn) [Compound 98, [(3S,8S)-8-[[7-(8-ethyl-7-fluoro-3-hydroxy-1-naphthyl)-8-fluoro-4-[(3R)-3-hydroxy-3-methyl-1-piperidyl]pyrido[4,3-d]pyrimidin-2-yl]oxymethyl]-1,2,3,5,6,7-hexahydropyrrolizin-3-yl]methyl 4-[[1-[1-(2,6-dioxo-3-piperidyl)-3-methyl-2-oxo-benzimidazol-5-yl]-4-piperidyl]methyl]piperidine-1-carboxylate] was tested, and the DC50 (KRAS G12D) was under 100 nM, the Dmax (KRAS G12D) was over 50% and the DC50 (KRAS G12V) was under 10 nM. For the same molecule, the DC50 (KRAS) was under 1 nM.
For `CCc1c(F)ccc2cc(O)cc(-c3ncc4c(N5CCC[C@@](C)(O)C5)nc(OC[C@@]56CCCN5[C@H](COC(=O)N5CCC(CN7CCC(c8ccc9c(C%10CCC(=O)NC%10=O)nn(C)c9c8)CC7)CC5)CC6)nc4c3F)c12` (stereo partly drawn) [Compound 99, [(3S,8S)-8-[[7-(8-ethyl-7-fluoro-3-hydroxy-1-naphthyl)-8-fluoro-4-[(3R)-3-hydroxy-3-methyl-1-piperidyl]pyrido[4,3-d]pyrimidin-2-yl]oxymethyl]-1,2,3,5,6,7-hexahydropyrrolizin-3-yl]methyl 4-[[4-[3-(2,6-dioxo-3-piperidyl)-1-methyl-indazol-6-yl]-1-piperidyl]methyl]piperidine-1-carboxylate], the DC50 (KRAS G12D) was under 100 nM, the Dmax (KRAS G12D) was over 50% and the DC50 (KRAS G12V) was under 10 nM. For the same molecule, the DC50 (KRAS) was under 1 nM.
